Assay results from PMC11194091 (2024).

Legend:
[1] = system: G2C4 RNA (RNA, triplex) GGCCCC; test: CSI-TOF mass spectrometry; details: 250 mM ammonium acetate; water/methanol 8:2, -10°C spray; 20 μM RNA, 50 μM ANP77; complexes with double-stranded form
[2] = system: (G2C4)2 (RNA, repeat) GGCCCCGGCCCC; test: circular dichroism; details: 100 mM NaCl; 10 mM sodium cacodylate pH 7.0, room temperature; 2.5 μM RNA, 25 μM ANP77
[3] = system: G2C4 RNA (RNA, triplex) GGCCCC; test: X-ray crystal structure; details: 80 mM NaCl; 40 mM sodium cacodylate pH 6.0, 45% MPD, 12 mM spermine, 19°C; 1.1 Å
[4] = system: (G2C4)2 (RNA, repeat) GGCCCCGGCCCC; test: ITC; details: 100 mM NaCl; 10 mM sodium cacodylate pH 6.0, 25°C; sequential binding sites model; site 1 of 2
[5] = system: G2C4 RNA (RNA, triplex) GGCCCC; test: ITC; details: 100 mM NaCl; 10 mM sodium cacodylate pH 6.0, 25°C; one set of sites model
[6] = system: RNA oligomer having five G2C4 repeats (RNA, repeat) GGCCCCGGCCCCGGCCCCGGCCCCGGCCCC; test: circular dichroism; details: 100 mM NaCl; 10 mM sodium cacodylate pH 7.0, room temperature; 2.5 μM RNA, 25 μM ANP77
[7] = system: G2C4 RNA (RNA, triplex) GGCCCC; test: DSC; details: 100 mM NaCl; 10 mM sodium cacodylate pH 6.0; 300 μM ANP77, 300 μM RNA; triplex melting 38.1 to 41.5; derived from two Tm

**Q.** Which results are given for `NCCCNC(=O)C(Cc1ccc2ccc(N)nc2n1)Cc1ccc2ccc(N)nc2n1`?
**A.** binding [1]: yes; binding [2]: yes; binding [3]: yes; Kd [4]: 0.976 ± 0.377 µM; Kd [5]: 7.9 ± 1.0 µM; binding [6]: yes; ΔTm1 (shift in Tm1) [7]: 3.4 °C
